In publication PMC10713630, “Elucidation of the structural basis for ligand binding and translocation in conserved insect odorant receptor co-receptors” (Nature Communications, 2023):
Several values for one entry are separate records, joined by “and”; a condition that tells them apart may be missing. Identical values can stand only once.

Assays:
MhraOR5 = test system: MhraOR5; set-up: method as in PMID 34349260; details: cited from earlier work
DmelOrco I181S = DmelOrco I181S (Drosophila melanogaster, UniProt Q9VNB5, I181S); test: TEVC recording of VUAA1-induced current, DmelOrco I181S in Xenopus oocytes; type: cell-based; set-up: VUAA1-induced current, i181S / VUAA1-induced current, I181S: unit not given here; details: for VUAA1-induced current, I181S: Fig.4i dose-response
Description: (§1) All Orco gene sequences were optimized[63] for protein expression in Xenopus laevis oocytes with the GenSmartTM Codon optimization Tool and subcloned into a pGEMHE-derived vector. The wildtype gene of Drosophila melanogaster Orco (DmelOrco) was synthesized by Genscript and subcloned with XmaI/XhoI cloning sites. Site-directed mutagenesis of DmelOrco was done by PCR with the Q5® site directed mutagenesis kit (NEB) using primers optimized with the NEBase Changer online tool and following the supplier’s protocol. After transformation of commercial competent bacteria (XL10 Gold) by standard heat-shock protocol and overnight culture in ampicillin-containing LB plates, positive clones were identified by electrophoretic restriction profile and external sequencing (Genewiz). DNAs of positive clones were amplified with Qiagen MidiPrep Kit and the ORF was fully sequenced. For in vitro transcription, DNAs were linearized with restriction enzyme NotI that cuts a unique site in the 3′ region of the polyA tail. The linearized DNAs were purified by the standard phenol:chloroform extraction method and transcribed into mRNA using the T7 ultra mMessage mMachine kit (Thermo Fisher Scientific). mRNAs were purified with the NucleoSpin RNA plus XS kit (Machery-Nagel). DNA and RNA were analyzed by agarose-gel electrophoresis and quantified by spectrophotometry.
(§2) Xenopus laevis oocytes were prepared, as previously described. Briefly, oocytes were defolliculated after surgical retrieval by type 1 A collagenase over 2-3 h under smooth horizontal agitation. They were manually selected and incubated at 19 °C in modified-Barth’s solution (1 mM KCl, 0.82 mM MgSO4, 88 mM NaCl, 2.4 mM NaHCO3, 0.41 mM CaCl2, Ca(NO3)2 0.3 mM, 16 mM HEPES, pH 7.4) supplemented with 100 U mL^−1 of penicillin and streptomycin and 0.1 mg mL^−1 of gentamycin. Each oocyte was micro-injected with the Nanoject instrument (Drummond) with 50 nL of 20 ng of mRNA coding for the Orco of interest. Injected oocytes were incubated individually in 96-well plates for 4 days at 19 °C in the same buffer. Different batches of oocytes have been tested per construct. The results of the mutants of interest have been confirmed by a second set of experiments comparing the amplitudes with WT in the same day and from the same batch of oocytes (Supplementary Fig. 11).
(§3) Whole cell currents were recorded with the two-electrode voltage-clamp (TEVC) technique with the HiClamp robot (MultiChannel System). Microelectrodes were filled with 3 M KCl. The high K^+ buffer used for recordings was composed of 91 mM KCl, 1 mM MgCl2, 1.8 mM CaCl2, 5 mM HEPES, pH 7.4. Membrane voltage was clamped to −50 mV and VUAA1 was applied for 60 s. Data were extracted with M. Vivaudou’s programs[65] and statistically analyzed with Prism 8 (Graphpad).

DmelOrco K373E = DmelOrco K373E (Drosophila melanogaster, UniProt Q9VNB5, K373E); test: TEVC recording of VUAA1-induced current, DmelOrco K373E in Xenopus oocytes; type: cell-based; set-up: VUAA1-induced current, K373E: unit not given here
Description: as §1, with “The linearized DNAs were purified by the standard phenol:chloroform extraction method and transcribed into mRNA using the T7 ultra mMessage mMachine kit (Thermo Fisher Scientific). mRNAs were purified with the NucleoSpin RNA plus XS kit (Machery-Nagel).” left out, “spectrophotometry. […]” for “spectrophotometry.”
(§4) Whole cell currents were recorded with the two-electrode voltage-clamp (TEVC) technique with the HiClamp robot (MultiChannel System). […] Data were extracted with M. Vivaudou’s programs[65] and statistically analyzed with Prism 8 (Graphpad).

DmelOrco T80W = DmelOrco T80W (Drosophila melanogaster, UniProt Q9VNB5, T80W); test: TEVC recording of VUAA1-induced current, DmelOrco T80W in Xenopus oocytes; type: cell-based; set-up: VUAA1-induced current, T80W: unit not given here; details: for VUAA1-induced current, T80W: individual oocytes
Description: as §1, §2, §3

DmelOrco Y400S = DmelOrco Y400S (Drosophila melanogaster, UniProt Q9VNB5, Y400S); test: TEVC recording of VUAA1-induced current, DmelOrco Y400S in Xenopus oocytes; type: cell-based; details: 500 µM VUAA1, TEVC
Description: as §1, with “The linearized DNAs were purified by the standard phenol:chloroform extraction method and transcribed into mRNA using the T7 ultra mMessage mMachine kit (Thermo Fisher Scientific). mRNAs were purified with the NucleoSpin RNA plus XS kit (Machery-Nagel).” left out, “spectrophotometry. […]” for “spectrophotometry.”
as §4

DmelOrco T80A = DmelOrco T80A (Drosophila melanogaster, UniProt Q9VNB5, T80A); test: TEVC recording of VUAA1-induced current, DmelOrco T80A in Xenopus oocytes; type: cell-based; set-up: VUAA1-induced current, T80A: unit not given here
Description: as §1, with “The linearized DNAs were purified by the standard phenol:chloroform extraction method and transcribed into mRNA using the T7 ultra mMessage mMachine kit (Thermo Fisher Scientific). mRNAs were purified with the NucleoSpin RNA plus XS kit (Machery-Nagel).” left out, “spectrophotometry. […]” for “spectrophotometry.”
as §4

DmelOrco F83A = DmelOrco F83A (Drosophila melanogaster, UniProt Q9VNB5, F83A); test: TEVC recording of VUAA1-induced current, DmelOrco F83A in Xenopus oocytes; type: cell-based; details: 500 µM VUAA1, TEVC
Description: as §1, with “The linearized DNAs were purified by the standard phenol:chloroform extraction method and transcribed into mRNA using the T7 ultra mMessage mMachine kit (Thermo Fisher Scientific). mRNAs were purified with the NucleoSpin RNA plus XS kit (Machery-Nagel).” left out, “spectrophotometry. […]” for “spectrophotometry.”
as §4

DmelOrco Y390A = DmelOrco Y390A (Drosophila melanogaster, UniProt Q9VNB5, Y390A); test: TEVC recording of VUAA1-induced current, DmelOrco Y390A in Xenopus oocytes; type: cell-based; details: 500 µM VUAA1, TEVC
Description: as §1, with “The linearized DNAs were purified by the standard phenol:chloroform extraction method and transcribed into mRNA using the T7 ultra mMessage mMachine kit (Thermo Fisher Scientific). mRNAs were purified with the NucleoSpin RNA plus XS kit (Machery-Nagel).” left out, “spectrophotometry. […]” for “spectrophotometry.”
as §4

MdesOrco = details: cited from earlier work
DmelOrco L141V = DmelOrco L141V (Drosophila melanogaster, UniProt Q9VNB5, L141V); test: TEVC recording of VUAA1-induced current, DmelOrco L141V in Xenopus oocytes; type: cell-based; details: 500 µM VUAA1, TEVC
Description: as §1, with “For in vitro transcription, DNAs were linearized with restriction enzyme NotI that cuts a unique site in the 3′ region of the polyA tail. The linearized DNAs were purified by the standard phenol:chloroform extraction method and transcribed into mRNA using the T7 ultra mMessage mMachine kit (Thermo Fisher Scientific). mRNAs were purified with the NucleoSpin RNA plus XS kit (Machery-Nagel).” left out, “spectrophotometry. […]” for “spectrophotometry.”
Whole cell currents were recorded with the two-electrode voltage-clamp (TEVC) technique with the HiClamp robot (MultiChannel System). […] Data were extracted with M. Vivaudou’s programs[65] and statistically analyzed with Prism 8 (Graphpad). […]
100 by 500 µM of the ligand VUAA1 and measured by TEVC recordings on DmelOrco WT and mutants […]

DmelOrco W150A = DmelOrco W150A (Drosophila melanogaster, UniProt Q9VNB5, W150A); test: TEVC recording of VUAA1-induced current, DmelOrco W150A in Xenopus oocytes; type: cell-based; set-up: VUAA1-induced current, W150A: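 current amplitude in µA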
Description: as §1, with “The linearized DNAs were purified by the standard phenol:chloroform extraction method and transcribed into mRNA using the T7 ultra mMessage mMachine kit (Thermo Fisher Scientific). mRNAs were purified with the NucleoSpin RNA plus XS kit (Machery-Nagel).” left out, “spectrophotometry. […]” for “spectrophotometry.”
as §4

Chain of DmelOrco I181S (Q9VNB5 whole entry I181S, the tested form may be a part): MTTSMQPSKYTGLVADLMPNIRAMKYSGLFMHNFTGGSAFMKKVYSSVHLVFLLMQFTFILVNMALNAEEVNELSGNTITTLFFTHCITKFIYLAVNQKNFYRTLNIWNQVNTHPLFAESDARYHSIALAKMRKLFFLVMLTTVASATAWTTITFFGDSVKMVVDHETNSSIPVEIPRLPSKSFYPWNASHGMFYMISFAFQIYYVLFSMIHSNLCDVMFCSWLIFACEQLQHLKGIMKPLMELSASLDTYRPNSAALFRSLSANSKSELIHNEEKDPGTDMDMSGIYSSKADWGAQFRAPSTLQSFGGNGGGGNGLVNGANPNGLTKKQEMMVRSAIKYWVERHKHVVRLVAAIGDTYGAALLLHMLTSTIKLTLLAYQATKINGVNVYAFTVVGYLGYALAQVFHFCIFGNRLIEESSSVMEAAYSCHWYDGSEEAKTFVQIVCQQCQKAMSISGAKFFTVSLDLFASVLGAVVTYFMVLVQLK
Chain of DmelOrco K373E (Q9VNB5 whole entry K373E, the tested form may be a part): as the sequence (Q9VNB5 whole entry I181S, the tested form may be a part) above, with S181I, K373E counted along it
Chain of DmelOrco T80W (Q9VNB5 whole entry T80W, the tested form may be a part): as the sequence (Q9VNB5 whole entry I181S, the tested form may be a part) above, with T80W, S181I counted along it
Chain of DmelOrco W150A (Q9VNB5 whole entry W150A, the tested form may be a part): as the sequence (Q9VNB5 whole entry I181S, the tested form may be a part) above, with W150A, S181I counted along it
Chain of DmelOrco T80A (Q9VNB5 whole entry T80A, the tested form may be a part): as the sequence (Q9VNB5 whole entry I181S, the tested form may be a part) above, with T80A, S181I counted along it
Chain of DmelOrco Y400S (Q9VNB5 whole entry Y400S, the tested form may be a part): as the sequence (Q9VNB5 whole entry I181S, the tested form may be a part) above, with S181I, Y400S counted along it
Chain of DmelOrco Y390A (Q9VNB5 whole entry Y390A, the tested form may be a part): as the sequence (Q9VNB5 whole entry I181S, the tested form may be a part) above, with S181I, Y390A counted along it
Chain of DmelOrco F83A (Q9VNB5 whole entry F83A, the tested form may be a part): as the sequence (Q9VNB5 whole entry I181S, the tested form may be a part) above, with F83A, S181I counted along it
Chain of DmelOrco L141V (Q9VNB5 whole entry L141V, the tested form may be a part): as the sequence (Q9VNB5 whole entry I181S, the tested form may be a part) above, with L141V, S181I counted along it

CCc1ccc(NC(=O)CSc2nnc(-c3cccnc3)n2CC)cc1 [VUAA1, N-(4-ethylphenyl)−2-((4-ethyl-5-(3-pyridinyl)−4H-1,2,4-triazol-3-yl)thio)acetamide]
Activation of MhraOR5 (MhraOR5): not by VUAA1 | EC50 (DmelOrco I181S): 102 µM | Current induced by VUAA1 (median) (DmelOrco I181S; 500 µM VUAA1, TEVC, I181S): 1.40 µA | Response to VUAA1 compared with WT (DmelOrco I181S; 500 µM VUAA1, TEVC, I181S): clear loss of VUAA1 activation | VUAA1-induced current, i181S (DmelOrco I181S; Fig.4b, individual oocytes): 1.9 and 2 and 1.3 and 0.38 and 0.78 and 1.7 and 1.5 and 2.2 and 2.1 and 1.2 and 1.4 and 0.46 and 1.1 and 1.8 and 2.3 | VUAA1-induced current, I181S (DmelOrco I181S; VUAA1 10 µM (Log(M) -5), individual oocytes): 0.26 and 0.25 and 0.11 | VUAA1-induced current, I181S (DmelOrco I181S; VUAA1 25 µM (Log(M) -4.6), individual oocytes): 0.22 (2×) and 0.2 and 0.06 and 0.1 and 0.03 and 0.21 and 0.09 | VUAA1-induced current, I181S (DmelOrco I181S; VUAA1 50 µM (Log(M) -4.3), individual oocytes): 0.39 and 0.35 and 0.1 and 0.28 and 0.07 and 0.3 and 0.34 and 0.19 | VUAA1-induced current, I181S (DmelOrco I181S; VUAA1 100 µM (Log(M) -4), individual oocytes): 1.03 and 0.88 and 0.21 and 0.74 and 0.26 and 0.4 and 0.43 and 0.32 | VUAA1-induced current, I181S (DmelOrco I181S; VUAA1 500 µM (Log(M) -3.3), individual oocytes): 1.45 and 1.2 and 0.29 and 2.29 and 0.87 and 0.44 and 0.47 and 0.39 | VUAA1-induced current, I181S (DmelOrco I181S; VUAA1 1000 µM (Log(M) -3), individual oocytes): 1.69 and 1.33 and 0.34 and 1.97 and 0.83 and 0.44 and 0.5 and 0.43 | Imax (DmelOrco I181S; concentration-effect curve of VUAA1, TEVC, I181S): 0.94 µA | Current induced by VUAA1 (median) (DmelOrco K373E; 500 µM VUAA1, TEVC, K373E): 7.47 µA | VUAA1-induced current, K373E (DmelOrco K373E; Fig.4b, individual oocytes): 4.46 and 4.23 and 7.21 and 7.53 and 6.82 and 10.02 and 4.07 and 5.42 and 9.17 and 11.32 and 9.58 and 7.4 and 16.4 and 9.48 and 7.37 and 12.12 | Response to VUAA1 compared with WT (DmelOrco T80W; 500 µM VUAA1, TEVC, T80W): significantly reduced or abolished the activation | VUAA1-induced current, T80W (DmelOrco T80W; Fig.4b): 0.01 and 0.63 and 0.07 and 0.04 and 0.05 and 0.57 and 0.84 and 0.02 | VUAA1-induced current, T80W (DmelOrco T80W; Fig.4i dose-response, VUAA1 10 µM (Log(M) -5)): 0.03 and 0.06 (2×) and 0.07 and 0.2 (2×) and 0 and 0.12 | VUAA1-induced current, T80W (DmelOrco T80W; Fig.4i dose-response, VUAA1 25 µM (Log(M) -4.6)): 0.05 and 0.08 and 0.11 and 0.35 and 0.01 and 0.07 and 0.14 and 0.15 | VUAA1-induced current, T80W (DmelOrco T80W; Fig.4i dose-response, VUAA1 50 µM (Log(M) -4.3)): 0.09 and 0.1 and 0.13 and 0.45 and 0.01 and 0.05 and 0.31 and 0.15 | VUAA1-induced current, T80W (DmelOrco T80W; Fig.4i dose-response, VUAA1 100 µM (Log(M) -4)): 0.12 and 0.1 and 0.13 (2×) and 0.42 and 0 and 0.08 and 0.29 | VUAA1-induced current, T80W (DmelOrco T80W; Fig.4i dose-response, VUAA1 500 µM (Log(M) -3.3)): 0.19 and 0.12 (3×) and 0.14 and 0.45 and 0.01 and 0.07 | VUAA1-induced current, T80W (DmelOrco T80W; Fig.4i dose-response, VUAA1 1000 µM (Log(M) -3)): 0.26 and 0.16 and 0.18 and 0.47 and 0.02 and 0.23 and 0.31 and 0.1 | Imax (DmelOrco T80W; concentration-effect curve of VUAA1, TEVC, T80W): 0.23 µA | Response to VUAA1 compared with WT (DmelOrco Y400S): did not significantly change the response | Response to VUAA1 compared with WT (DmelOrco T80A; 500 µM VUAA1, TEVC, T80A): did not significantly affect the amplitude of activation | VUAA1-induced current, T80A (DmelOrco T80A; Fig.4b, individual oocytes): 2.4 and 1.22 and 3.78 and 5.59 and 4.73 and 0.91 and 2.46 and 0.65 and 0.56 and 4.38 and 3.16 and 5.8 | Current induced by VUAA1 (median) (DmelOrco F83A): 2.33 µA | Response to VUAA1 compared with WT (DmelOrco Y390A): did not show significant change | Sensitivity of MdesOrco to VUAA1 (MdesOrco): VUAA1-insensitive | Response to VUAA1 compared with WT (DmelOrco L141V): did not induce significant change | Response to VUAA1 compared with WT (DmelOrco W150A; 500 µM VUAA1, TEVC, W150A): did not significantly affect the amplitude of activation | VUAA1-induced current, W150A (DmelOrco W150A; Fig.4b, individual oocytes): 4.32 and 3.86 and 5.79 and 2.71 and 5.07 and 2.76 and 2.23 and 2.97 and 2.04 and 1.54 and 0.79 and 4.84 and 4.06 and 8
